The conditions of data set [1]: cited from earlier work.
Data set [2] is described as follows: Randomized, crossover, fed/fasted single-dose pharmacokinetic study of oral sustained release tablets of compound (3) in healthy adult subjects. In kind it is in vivo, human. Here is the method: A randomized, crossover, fed/fasted single-dose study of the safety, tolerability, and pharmacokinetics of oral administration of 1-{[(α-isobutanoyloxyethoxy)carbonyl]aminomethyl}-1-cyclohexane acetic acid (3) in healthy adult subjects was conducted. The oral sustained release dosage form of Example 6 (uncoated) was used in this study. The study was designed to evaluate the performance of this formulation in humans in comparison with the commercial gabapentin capsule formulation (Neurontin®, Pfizer). Twelve healthy adult volunteers (7 males and 5 females) participated in the study. Mean body weight was 75.6 kg. All subjects received two different treatments in a random order with a one-week washout between treatments. The two treatments were: A) a single oral dose of Example 6 tablets (2×600 mg) after an overnight fast; and B) a single oral dose of Example 6 tablets (2×600 mg) after a high fat breakfast.
Blood and plasma samples were collected from all subjects prior to dosing, and at 0.5, 1, 1.5, 2, 3, 4, 6, 8, 12, 18, 24, and 36 hours after dosing. Urine samples were collected from all subjects prior to dosing, and complete urine output was obtained at the 0-4 h, 4-8 h, 8-12 h, 12-18 h, 18-24 h, and 24-36 h intervals after dosing. Blood samples were quenched immediately with methanol and stored frozen at […]. Sample aliquots were prepared for analysis of gabapentin and compound (3) using sensitive and specific LC/MS/MS methods.

The structures appear in SMILES notation.

Regarding `NCC1(CC(=O)O)CCCCC1` [gabapentin], the “Typical Tmax of immediate release gabapentin” value in data set [1] was 2 to 4 h.
As to `CC(OC(=O)NCC1(CC(=O)O)CCCCC1)OC(=O)C(C)C` (stereo not drawn) [compound (3), 1-{[(α-Isobutanoyloxyethoxy)carbonyl]aminomethyl}-1-Cyclohexane Acetic Acid], in data set [2] (fasted subjects), the “AUC of compound (3) in blood as % of corresponding AUC of gabapentin in blood” value is 0.3% and the “Maximum intact compound (3) concentration as % of corresponding peak gabapentin concentration” value was “approximately 1.0%”. Also, in data set [2] (fed subjects), the “AUC of compound (3) in blood as % of corresponding AUC of gabapentin in blood” value is reported as “less than 0.1%” and the “Maximum intact compound (3) concentration as % of corresponding peak gabapentin concentration” value is on record as “approximately 0.3%”.

The values are drawn from patent US20080161393A1, “Use of prodrugs of GABA analogs for treating disease” (priority 2006, published 2008).
